The record followed here is ChEMBL document CHEMBL3286181, “Pyridopyrimidinone inhibitors of HIV-1 RNase H” (Eur J Med Chem, 2014).

Converted amounts (≈) assume the structure as drawn. The source made the active and inactive calls.

What is called IC50 is the concentration that inhibits the measured activity by half. As a reminder, the solubility is the dissolved amount per volume that the medium holds. In general, half-life refers to the time needed for the level to fall by half in the phase considered. Read a high half-life as slow loss.

Data set [1] is described as follows: Inhibition of HIV1 reverse transcriptase strand transfer activity.
In data set [2] the target is T1, Human immunodeficiency virus type 1 integrase (Human immunodeficiency virus 1, UniProt Q7ZJM1). Description: Inhibition of recombinant HIV1 N-terminal His6-tagged integrase expressed in Escherichia coli using 32P-labeled preprocessed HIV-1 U5 DNA as substrate assessed as strand transfer activity after 2 hrs by densitometric analysis.
T1 sequence (Q7ZJM1 whole entry): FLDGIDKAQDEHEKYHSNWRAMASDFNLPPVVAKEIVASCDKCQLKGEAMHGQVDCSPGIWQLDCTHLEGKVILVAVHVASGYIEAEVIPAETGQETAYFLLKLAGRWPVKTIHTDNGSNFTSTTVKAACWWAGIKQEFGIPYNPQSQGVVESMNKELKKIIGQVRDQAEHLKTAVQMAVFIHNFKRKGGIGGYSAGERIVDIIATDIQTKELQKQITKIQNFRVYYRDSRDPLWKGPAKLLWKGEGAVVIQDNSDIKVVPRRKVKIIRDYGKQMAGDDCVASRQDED
Data set [3] deals with T1, Human immunodeficiency virus type 1 integrase. Kind of data set: Inhibition of HIV1 integrase strand transfer activity.
The target of data set [4] is Human immunodeficiency virus type 1 reverse transcriptase (Human immunodeficiency virus 1, UniProt Q72547). Description: Inhibition of HIV1 reverse transcriptase RNase-H activity using dATP, dCTP, dTTP, [8-3H(N)]-dGTP, oligo1, oligo 2, oligo 3 as substrate preincubated for 30 mins followed by substrate addition measured after 90 mins.
The target of data set [5] is T1, Human immunodeficiency virus type 1 integrase. Description: Inhibition of recombinant HIV1 integrase bound with donor DNA-SPA beads using [3H] target DNA as substrate assessed as strand transfer activity preincubated for 60 mins followed by substrate addition measured after 25 to 45 mins.
Data set [6] deals with Human immunodeficiency virus type 1 reverse transcriptase (Human immunodeficiency virus 1) (UniProt Q72547). Kind of data set: Inhibition of HIV1 reverse transcriptase DNA polymerase activity up to 10 uM.
The test system of another data set is Rattus norvegicus. Description: Dose normalized AUC in Sprague-Dawley (CD) rat at 1 mg/kg, iv. The settings on record: in vivo. On the set-up: dose 1 mg/kg, route intravenous. It counts as ADME, organism-based.
Data set [7] relates to Human immunodeficiency virus. Description: microbe, parasite or virus in culture. The settings on record: Human immunodeficiency virus 1, HEK-293T, 48 h.
Description: Antiviral activity against Vesicular stomatitis virus G-pseudotyped HIV infected in human 293T cells transfected with pGJ3-Luci after 2 days by single round infectivity assay
Data set [8] is described as follows: Clearance in Sprague-Dawley (CD) rat at 1 mg/kg, iv relative to hepatic blood flow. The settings on record: in vivo, read-out: CLH. More on the design: dose 1 mg/kg, route intravenous. It counts as ADME, organism-based, Liver.
The nature of data set [9]: Solubility of the compound by chemiluminescent nitrogen detection method. Format: physicochemical.
The nature of data set [10]: Half life in Sprague-Dawley (CD) rat at 1 mg/kg, iv and 5 mg/kg, po. It counts as ADME, organism-based. The note with it: in vivo.
Data set [11] in a line: Permeability across MDCK cells. The note with it: dog, read-out: permeability. Format: ADME, cell-based, Canis lupus familiaris.
The target of data set [12] is T1, Human immunodeficiency virus type 1 integrase. Kind of data set: Inhibition of HIV1 integrase bound with donor DNA-SPA beads using 3'-end fluorescein isothiocyanate labeled target DNA as substrate assessed as strand transfer activity incubated prior to substrate addition.

For the compound `O=C(NCc1ccc(Cl)cc1)c1ncc2cccnc2c1O`, the results for the IC50 in data set [1] and in [2] were 0.135 µM and 20 µM, respectively.

In turn, `O=C1Cc2ccccc2C(=O)N1O` came in with an IC50 in data set [3] of more than 5000 µM.

With `O=c1nc(NCc2ccc(-c3ccccc3)cc2)c2cccnc2n1O`, the half-inhibitory concentration (IC50) in data set [4] is 0.01 µM; in [5], 0.63 µM. In data set [6], the inhibition entry was “inactive”.

On to `O=c1nc(Nc2ccc(-c3ccncc3)cc2)c2cccnc2n1O`, for which the results for the concentration for half-maximal inhibition (IC50) in data set [4] and in [5] were 0.079 µM and 1.99 µM, respectively. Further, the AUC/dose in the data set on Rattus norvegicus amounted to 1942 ng·h/mL/mg. Moreover, the inhibition entry in [6] was “inactive”.

Consider `O=c1nc(NCc2cccc(N3CCOCC3)c2)c2cccnc2n1O`, for which the results for the IC50 in data set [4], in data set [7] and in data set [5] were 0.2 µM, 0.38 µM and 1.99 µM, respectively. In [6], the inhibition entry is “inactive”.

Regarding `O=c1nc(NCc2ccc(N3CCOCC3)cc2)c2cccnc2n1O`, the IC50 in data set [4] was determined as 0.1 µM; in [7], 0.47 µM; in data set [5] it was 1.58 µM. Moreover, the clearance in data set [8] was 55 mL/min/kg. For the same compound, the solubility in data set [9] came out at 293 µM (≈ 104 µg/mL). In the data set on Rattus norvegicus, this compound showed an AUC/dose of 713 ng·h/mL/mg. Moreover, the half-life in [10] was 4.5 h. Also, the Papp in data set [11] came to 1.4 ×10⁻⁶ cm/s. The inhibition result in data set [6] is “inactive”.

`O=c1nc(NCC2CC2)c2cccnc2n1O`: the IC50 in data set [4] was found to be 0.398 µM; in data set [7], 0.71 µM; in [5] it was 3.9 µM.

Turning to `O=c1nc(Nc2ccc(N3CCOCC3)cc2)c2cccnc2n1O`, the IC50 worked out at 0.05 µM in [4], 0.25 µM in data set [7] and 0.5 µM in data set [5]. Besides, the clearance in [8] was 45 mL/min/kg. Also, in data set [9], the concentration in solution (solubility) was 161 µM (≈ 54.6 µg/mL). In addition, the AUC/dose with Rattus norvegicus amounted to 314 ng·h/mL/mg. In addition, the half-life in data set [10] was 2.4 h. Moreover, in data set [11], the Papp is 0.7 ×10⁻⁶ cm/s. In addition, the inhibition entry in data set [6] is “inactive”.

Turning to `O=C(NCc1ccc(F)cc1)c1nc(N2CCCCS2(=O)=O)c2cccnc2c1O`, the IC50 in data set [12] was determined as 10 µM.

Take `O=c1nc(Nc2ccc(-c3ccccc3)cc2)c2cccnc2n1O`: the IC50 in data set [5] was determined as 0.79 µM. The AUC/dose with Rattus norvegicus was found to be 2934 ng·h/mL/mg. Besides, in [6], the inhibition entry was “inactive”.

For `O=c1nc(N2CCC(F)(F)CC2)c2cccnc2n1O`, the IC50 in data set [4] turned out to be 0.501 µM; in data set [5], 7.94 µM. The inhibition entry in [6] was “inactive”.

In the case of `O=c1nc(NCc2ccc(F)cc2)c2cccnc2n1O`, the figures for the IC50 in [4] and in data set [5] were 0.158 µM and 3.16 µM, respectively. Also, the inhibition result in [6] is “inactive”.

On to `O=c1nc(NCc2ccc(-c3ccncc3)cc2)c2cccnc2n1O`, for which the IC50 turned out to be 0.016 µM in data set [4] and 1.26 µM in data set [5]. The AUC/dose in the data set with Rattus norvegicus came to 1000 ng·h/mL/mg. Besides, the inhibition entry in data set [6] is “inactive”.

With `O=c1nc(NCc2cccc(CN3CCOCC3)c2)c2cccnc2n1O`, the IC50 in data set [4] was found to be 0.398 µM; in [7] it was 0.3 µM; in data set [5], 15.9 µM. In addition, in data set [6], the inhibition result is “inactive”.

For the compound `O=c1nc(Nc2ccc(CN3CCOCC3)cc2)c2cccnc2n1O`, the half-inhibitory concentration (IC50) in [4] was found to be 0.2 µM; in data set [7], 0.16 µM; in data set [5] it was 1.3 µM. The clearance in [8] was 70 mL/min/kg. In addition, the solubility in data set [9] worked out at 503 µM (≈ 178 µg/mL). This compound yielded an AUC/dose in the data set with Rattus norvegicus of 226 ng·h/mL/mg. The half-life in data set [10] is 0.4 h. In addition, the Papp in data set [11] worked out at 0.5 ×10⁻⁶ cm/s. Also, the inhibition result in data set [6] is “inactive”.
